According to US11667638B2, “4-substitued cytisine analogues” (The University of Bristol, priority 2016, dated 2023):
Where two headings read alike, the source gives them in different places.

Legend:
α4β2 nAChR = α4β2 nAChR (Homo sapiens (Human), UniProt P17787+P43681); type: binding; details: ratio of Ki values
Experimental: HEK 293 cells were grown in Dulbecco's modified Eagle medium supplemented with 10% fetal bovine serum, 1% L-Glutamine, 100 units/ml penicillin G, and 100 μg/streptomycin in a humidified atmosphere containing 10% CO2. The cDNAs encoding α3 and β4 or α4 and β2 (were transfected into the HEK 293 cells at 30% confluency). The cell transfections were carried out in 100 mm Petri dishes using 30 μL of JetPEI™ (Polypus, France) (1 mg/ml, pH 7.2) and 3 μg of each cDNA. After 24 h transfection, the cells were collected, washed with PBS by centrifugation, and used for binding analysis.
[^3H]-epibatidine saturation binding experiments to HEK transfected α3β4 or α4β2 receptors were performed by means of overnight incubation at 4° C. at concentrations ranging from 0.005 to 1 nM in a buffer containing 50 mM Tris-HCl, pH 7, 150 mM NaCl, 5 mM KCl, 1 mM MgCl2, 2.5 mM CaCl2 and 2 mg/ml BSA, in the presence (aspecific binding) or absence (total binding) of 100 nM cold epibatidine. Specific ligand binding was defined as total binding minus the binding in the presence of 100 nM cold epibatidine.
After incubation, the membranes of HEK cells transfected with α4β2* or α3β4 subtypes were washed by filtration on GFC filters with ice-cold PBS. The GFC filters were pre-soaked in polyethylenimine and filtered through an harvester apparatus. [^3H]-epibatidine binding was determined by means of liquid scintillation counting in a beta counter.
The ligand binding data were analyzed by means of nonlinear regression using Prism version 5 (GraphPad Software, Inc., La Jolla, Calif.). The Ki values were calculated from the experimental IC50 values using the Cheng-Prusoff equation for a single population of competitive sites: Ki=IC50/[1+(L/Kd)], where L is the concentration of radioligand used in each experiment and the Kd values were determined by saturation binding experiment. All of the assays were performed in duplicate and repeated at least two-three times.

(α4)3(β2)2 nAChRs = (α4)3(β2)2 nAChRs (Homo sapiens (Human), UniProt P17787+P43681); test: Maximal gating efficacy on (α4)3(β2)2 nAChRs in Xenopus oocytes, two electrode voltage clamp; type: cell-based
Sequence of (α4)3(β2)2 nAChRs (P43681 29-627): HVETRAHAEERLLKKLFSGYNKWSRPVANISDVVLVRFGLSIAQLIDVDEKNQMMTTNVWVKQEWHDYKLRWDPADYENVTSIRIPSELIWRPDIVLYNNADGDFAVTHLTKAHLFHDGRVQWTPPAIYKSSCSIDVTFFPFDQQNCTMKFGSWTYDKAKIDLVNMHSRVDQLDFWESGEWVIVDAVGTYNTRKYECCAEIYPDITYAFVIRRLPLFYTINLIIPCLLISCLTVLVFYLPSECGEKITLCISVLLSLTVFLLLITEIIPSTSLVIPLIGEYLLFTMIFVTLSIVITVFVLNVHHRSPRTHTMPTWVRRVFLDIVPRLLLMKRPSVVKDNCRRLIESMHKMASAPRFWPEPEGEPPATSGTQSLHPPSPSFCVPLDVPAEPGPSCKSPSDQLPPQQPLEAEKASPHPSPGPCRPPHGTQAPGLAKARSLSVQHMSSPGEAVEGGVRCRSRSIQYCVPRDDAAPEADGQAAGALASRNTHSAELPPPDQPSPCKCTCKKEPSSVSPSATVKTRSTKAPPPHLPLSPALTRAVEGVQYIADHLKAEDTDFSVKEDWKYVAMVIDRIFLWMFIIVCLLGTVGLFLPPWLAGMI
Sequence of (α4)3(β2)2 nAChRs (P17787 26-502): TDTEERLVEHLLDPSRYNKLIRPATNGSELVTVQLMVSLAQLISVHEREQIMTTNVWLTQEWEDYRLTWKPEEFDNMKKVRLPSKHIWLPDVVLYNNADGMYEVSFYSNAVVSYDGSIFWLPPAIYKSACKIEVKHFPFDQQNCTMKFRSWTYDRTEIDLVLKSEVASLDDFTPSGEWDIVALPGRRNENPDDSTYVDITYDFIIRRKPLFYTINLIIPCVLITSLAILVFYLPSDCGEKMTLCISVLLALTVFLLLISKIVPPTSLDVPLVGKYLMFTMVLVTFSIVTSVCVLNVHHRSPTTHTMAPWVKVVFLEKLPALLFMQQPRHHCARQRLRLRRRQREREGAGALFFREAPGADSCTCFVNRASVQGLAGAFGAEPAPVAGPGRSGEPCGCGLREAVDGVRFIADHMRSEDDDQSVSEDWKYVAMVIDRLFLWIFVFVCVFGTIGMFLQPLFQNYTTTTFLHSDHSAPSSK
Experimental: (§1) Compounds of the invention were tested for effects on the function of human α4β2, α3β4 and α7 nicotinic acetylcholine receptors (nAChRs) expressed heterologously in Xenopus oocytes. […] Expression in oocytes was obtained as follows: pCI (Promega, UK) plasmid containing human α4, β2, β4 or α7 complementary DNA were injected as previously described (Moroni et al., 2006). To express (α4)3(β2)2 nACh receptors, a mixture of 10α4:1β2 cDNAs was injected into the nucleus of oocytes, whereas for (α4)2(β2)3 receptors the cDNA ratio injected was 1α4:10β2.
(§2) Functional studies: Recordings were performed manually using a Geneclamp amplifier (Molecular Devices, USA) or using an automated HiClamp system. In both cases the oocytes were impaled with two electrodes filled with 3 M KCl and the cells were held at −60 mV throughout the experiments.
(§3) Oocyte isolation and two-electrode voltage-clamp recordings on oocytes were carried out as previously described (Moroni et al., 2006; Carbone et al., 2009). […] A minimum interval of 5 min was allowed between agonist applications to ensure reproducible recordings. Oocytes were exposed to increasing concentrations of the compounds until no further increases in the response amplitude were obtained. This concentration was taken as the concentration that causes maximal responses on the receptors tested. The data summarised in Tables 1-4 were obtained from at least 5 experiments carried out on oocytes obtained from at least three different donors.
Maximal gating efficacy of the compounds: The concentration of the compounds of the invention causing maximal activation of the (α4)3(β2)2 nAChRs expressed heterologously in Xenopus oocytes was determined using two electrode voltage clamping.

(α4)2(β2)3 nAChRs = (α4)2(β2)3 nAChRs (Homo sapiens (Human), UniProt P17787+P43681); test: Maximal gating efficacy on (α4)2(β2)3 nAChRs in Xenopus oocytes, two electrode voltage clamp; type: cell-based
Sequence of (α4)2(β2)3 nAChRs (P43681 29-627): as the sequence (P43681 29-627) above
Sequence of (α4)2(β2)3 nAChRs (P17787 26-502): as the sequence (P17787 26-502) above
Experimental: as §1, §2, §3
Maximal gating efficacy of compounds on (α4)2(β2)3 receptors (high sensitivity receptors): The concentration of the compounds causing maximal activation of the (α4)2(β2)3 nAChRs expressed heterologously in Xenopus oocytes was determined using two electrode voltage clamping.

α3β4 nAChRs = α3β4 nAChRs (Homo sapiens (Human), UniProt P30926+P32297); test: Maximal gating efficacy on α3β4 nAChRs in Xenopus oocytes, two electrode voltage clamp; type: cell-based; details: maximal current relative to 1 mM ACh
Sequence of α3β4 nAChRs (P32297 32-505): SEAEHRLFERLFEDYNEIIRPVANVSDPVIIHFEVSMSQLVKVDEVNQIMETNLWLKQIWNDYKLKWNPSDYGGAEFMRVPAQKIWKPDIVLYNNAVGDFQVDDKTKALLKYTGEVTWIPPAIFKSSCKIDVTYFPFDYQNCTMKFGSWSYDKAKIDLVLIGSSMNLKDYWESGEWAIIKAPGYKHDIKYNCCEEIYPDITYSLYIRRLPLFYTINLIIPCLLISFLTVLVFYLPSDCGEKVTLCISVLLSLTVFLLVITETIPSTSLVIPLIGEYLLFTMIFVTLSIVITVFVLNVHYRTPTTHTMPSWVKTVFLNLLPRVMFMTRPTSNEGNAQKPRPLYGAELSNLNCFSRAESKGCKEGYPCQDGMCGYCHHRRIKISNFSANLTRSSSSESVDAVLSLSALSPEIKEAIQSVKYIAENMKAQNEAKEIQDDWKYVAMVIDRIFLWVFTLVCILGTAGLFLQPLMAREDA
Sequence of α3β4 nAChRs (P30926 22-498): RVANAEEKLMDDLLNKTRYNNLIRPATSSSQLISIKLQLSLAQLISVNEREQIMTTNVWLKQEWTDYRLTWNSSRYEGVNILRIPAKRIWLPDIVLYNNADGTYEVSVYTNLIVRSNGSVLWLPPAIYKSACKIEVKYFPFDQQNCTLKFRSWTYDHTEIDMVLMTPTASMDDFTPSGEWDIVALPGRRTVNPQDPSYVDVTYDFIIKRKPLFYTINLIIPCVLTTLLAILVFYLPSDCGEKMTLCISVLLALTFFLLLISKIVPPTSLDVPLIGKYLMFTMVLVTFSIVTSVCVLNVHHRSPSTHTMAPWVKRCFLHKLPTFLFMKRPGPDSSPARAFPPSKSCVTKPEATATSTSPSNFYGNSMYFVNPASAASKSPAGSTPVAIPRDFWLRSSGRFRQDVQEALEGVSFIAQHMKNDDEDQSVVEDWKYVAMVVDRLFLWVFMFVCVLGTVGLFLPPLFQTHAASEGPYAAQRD
Experimental: as §1, §2, §3
Maximal gating efficacy of the compounds on α3β4 nAChRs: The concentration of the compounds causing maximal activation of α3β4 nAChRs expressed heterologously in Xenopus oocytes was determined using two electrode voltage clamping.

α7 nAChRs = α7 nAChRs (Homo sapiens (Human), UniProt P36544); type: cell-based; details: compounds at 100 μM, relative to 1 mM ACh
Sequence of α7 nAChRs (P36544 23-502): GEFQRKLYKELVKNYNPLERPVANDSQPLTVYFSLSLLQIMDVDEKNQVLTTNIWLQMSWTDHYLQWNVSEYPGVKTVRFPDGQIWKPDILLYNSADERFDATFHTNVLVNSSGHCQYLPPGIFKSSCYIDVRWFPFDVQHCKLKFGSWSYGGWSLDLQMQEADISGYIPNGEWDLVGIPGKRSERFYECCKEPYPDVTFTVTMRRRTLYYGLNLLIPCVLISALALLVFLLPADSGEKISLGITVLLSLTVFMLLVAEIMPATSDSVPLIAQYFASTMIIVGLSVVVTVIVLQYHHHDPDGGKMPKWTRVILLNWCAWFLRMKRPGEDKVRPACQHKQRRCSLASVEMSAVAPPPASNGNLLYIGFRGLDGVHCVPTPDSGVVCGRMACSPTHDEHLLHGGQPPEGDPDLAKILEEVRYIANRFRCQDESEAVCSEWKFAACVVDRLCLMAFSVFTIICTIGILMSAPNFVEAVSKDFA
Experimental: as §1, §2, §3

[1] = (α4)3(β2)2, low sensitivity stoichiometry, maximal current relative to 1 mM ACh
[2] = (α4)2(β2)3, high sensitivity receptors, maximal current relative to 1 mM ACh

Sequence of α4β2 nAChR (P43681 29-627 limits assumed): as the sequence (P43681 29-627) above
Sequence of α4β2 nAChR (P17787 26-502 limits assumed): as the sequence (P17787 26-502) above

Structure (SMILES)	Ratio α3β4/α4β2 (α4β2 nAChR)	Relative efficacy (ACh) ((α4)3(β2)2 nAChRs; [1])	Relative efficacy (ACh) ((α4)2(β2)3 nAChRs; [2])	Relative efficacy (ACh) (α3β4 nAChRs)	Relative efficacy (ACh) (α7 nAChRs)	Relative efficacy (ACh) ((α4)3(β2)2 nAChRs)	Relative efficacy (ACh) ((α4)2(β2)3 nAChRs)
O=c1cc(Br)cc2n1CC1CNC[C@@H]2C1 (single isomer, unassigned; (-)) [Compound 62, (−)4-Bromocytisine]	303.4	0.057 ± 0.007	0.009 ± 0.0001	0.184 ± 0.046	0.28 ± 0.01	–	–
C#Cc1cc2n(c(=O)c1)CC1CNC[C@@H]2C1.Cl (single isomer, unassigned; (-)) [Compound 127, (−)4-(acetylenyl)cytisine]	710.5	0.071 ± 0.009	0.009 ± 0.0009	0.165 ± 0.064	0.17 ± 0.03	–	–
Cc1ccc(-c2cc3n(c(=O)c2)CC2CNC[C@@H]3C2)cc1 (single isomer, unassigned; (+)) [Compound 73, (+)4-p-Tolylcytisine]	161.7	–	–	0.076 ± 0.093	0.0027 ± 0.0021	0.017 ± 0.019	0.030 ± 0.013
COc1cc2n(c(=O)c1)CC1CNC[C@@H]2C1 (single isomer, unassigned; (-)) [Compound 69, (−)4-Methoxycytisine]	206.1	0.071 ± 0.009	0.009 ± 0.0008	0.044 ± 0.059	0.061 ± 0.09	–	–
Cc1cc2n(c(=O)c1)CC1CNC[C@@H]2C1.Cl (single isomer, unassigned; (-)) [Compound 110, (−)4-Methylcytisine]	864.3	0.014 ± 0.007	0.041 ± 0.004	0.0708 ± 0.059	0.0017 ± 0.0024	–	–
CCc1cc2n(c(=O)c1)CC1CNC[C@@H]2C1.Cl (single isomer, unassigned; (-)) [Compound 118, (−)4-Ethylcytisine]	1901.3	0.036 ± 0.055	0.062 ± 0.025	0.086 ± 0.106	0.0057 ± 0.0028	–	–
Cl.O=c1cc(-c2c(F)c(F)c(F)c(F)c2F)cc2n1CC1CNC[C@@H]2C1 (single isomer, unassigned; (-)) [Compound 75, (−)4-(Perfluorophenyl)cytisine]	8.1	0.011 ± 0.010	0.050 ± 0.071	0.120 ± 0.039	0.0007 ± 0.0006	–	–
CN(Cc1cc2n(c(=O)c1)CC1CNC[C@@H]2C1)Cc1cc2n(c(=O)c1)CC1CNC[C@@H]2C1 (stereo in doubt) [Compound 156, Methylamino bis(cytisine) derivative]	207.3	0.052 ± 0.007	No response	0.012 ± 0.007	–	–	–
c1cnc2cc3c(cc2n1)[C@@H]1CNC[C@H]3C1 [Varenicline, reference compound]	–	0.40 ± 0.09	0.14 ± 0.03	0.51 ± 0.09	0.96 ± 0.03	–	–
N#Cc1cc2n(c(=O)c1)CC1CNC[C@@H]2C1 (single isomer, unassigned; (-)) [Compound 140, (−)4-Cyanocytisine]	199.5	0.050 ± 0.027	0.026 ± 0.036	0.172 ± 0.064	–	–	–
Cl.O=c1cc(CO)cc2n1CC1CNC[C@@H]2C1 (single isomer, unassigned; (-)) [Compound 122, (−)4-(Hydroxymethyl)cytisine]	73.0	0.058 ± 0.057	0.025 ± 0.000	0.015 ± 0.020	0.0067 ± 0.0015	–	–
CC(=O)Nc1cc2n(c(=O)c1)CC1CNC[C@@H]2C1.Cl (single isomer, unassigned; (+)) [Compound 94, (+)4-(N-acetylamino)cytisine]	751.0	0.153 ± 0.006	0.001 ± 0.0006	0.055 ± 0.047	0.0001 ± 0.00001	–	–
COC(=O)c1cc2n(c(=O)c1)CC1CNC[C@@H]2C1 (single isomer, unassigned; (-)) [Compound 119, (−)4-carboxymethycytisine]	366.5	0.021 ± 0.007	0.0065 ± 0.0005	0.040 ± 0.049	–	–	–
Nc1cc2n(c(=O)c1)CC1CNC[C@@H]2C1 (single isomer, unassigned; (+)) [Compound 81, (+)4-aminocytisine]	1561.0	0.007 ± 0.01061	0.024 ± 0.034	0.0210 ± 0.008	–	–	–
O=c1cc(-c2ccccn2)cc2n1CC1CNC[C@@H]2C1 (single isomer, unassigned; (-)) [Compound 101, (−)4-(2-Pyridinyl)cytisine]	1575.0	0.009 ± 0.008	0.0001 ± 0.00008	0.066 ± 0.056	0.16 ± 0.03	–	–
O=c1cc(-c2ccncc2)cc2n1CC1CNC[C@@H]2C1 (single isomer, unassigned; (-)) [Compound 103, (−)4-(4-Pyridinyl)cytisine]	859.6	0.023 ± 0.006	0.0067 ± 0.0006	0.016 ± 0.010	0.07 ± 0.009	–	–
O=c1cc(Cl)cc2n1CC1CNC[C@@H]2C1 (single isomer, unassigned; (-)) [Compound 60, (−)4-Chlorocytisine]	328.6	0.110 ± 0.08	0.01 ± 0.007	0.133 ± 0.017	0.38 ± 0.09	–	–
O=c1cc(O)cc2n1CC1CNC[C@@H]2C1 (single isomer, unassigned; (+)) [Compound 67, (+)4-Hydroxycytisine]	397.8	0.07 ± 0.009	0.005 ± 0.0001	0.047 ± 0.036	No response at 100 μM	–	–
